Data: patent US7138361B2, “Herbicidal heterocycles” (E. I. du Pont de Nemours and Company, priority 2000, dated 2006)

Key:
Type in all cases: in vivo
[1] = tested on: morningglory (Ipomoea hederacea); test: Test C preemergence
Outline: (§1)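 Test chemicals, formulated in a non-phytotoxic solvent mixture with surfactant, were applied preemergence to planted seeds or postemergence to plants 2 to 18 cm tall (1- to 4-leaf stage). After 12 to 14 days in a greenhouse, injury was visually rated against untreated controls on a 0–100 scale.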

Sunflower [2] = test: Test C preemergence
corn (Zea mays) [3] = test: Test C preemergence
Outline: as §1

kochia (Kochia scoparia) = test: Test C preemergence
Outline: as §1

[4] = tested on: bermudagrass (Cynodon dactylon); test: Test C preemergence
Outline: as §1

[5] = tested on: giant foxtail (Setaria faberii); test: Test C preemergence
Outline: as §1

[6] = tested on: velvetleaf (Abutilon theophrasti); test: Test C preemergence
Outline: as §1

[7] = tested on: johnsongrass (Sorghum halepense); test: Test C preemergence
Outline: as §1

[8] = tested on: yellow nutsedge (Cyperus esculentus); test: Test C preemergence
Outline: as §1

Sunflower [9] = test: Test C preemergence; conditions: Rate 250 g/ha, visual evaluation after 12 to 14 days
[10] = tested on: cocklebur (Xanthium strumarium); test: Test B postemergence; conditions: 13 to 15 days
Outline: (§2)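 Visual injury scores, 0 = no effect to 100 = complete control, assigned against controls after 13 to 15 days in the greenhouse. Compounds formulated in non-phytotoxic solvent plus surfactant and applied to soil after planting (pre) or onto foliage of 1- to 4-leaf plants (post).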

[11] = tested on: crabgrass (Digitaria sanguinalis); test: Test B postemergence; conditions: 13 to 15 days
Outline: as §2

[12] = tested on: pigweed (Amaranthus retroflexus); test: Test B postemergence; conditions: 13 to 15 days
Outline: as §2

[13] = tested on: lambsquarters (Chenopodium album); test: Test B postemergence; conditions: 13 to 15 days
Outline: as §2

corn (Zea mays) [14] = test: Test B postemergence; conditions: 13 to 15 days
Outline: as §2

wild oat (Avena fatua) = test: Test B postemergence; conditions: 13 to 15 days
Outline: as §2

[15] = tested on: wheat (Triticum aestivum); test: Test B postemergence; conditions: 13 to 15 days
Outline: as §2

[16] = tested on: morning glory (Ipomoea hederacea); test: Test B postemergence; conditions: 13 to 15 days
Outline: as §2

[17] = tested on: giant foxtail (Setaria faberii); test: Test B postemergence; conditions: 13 to 15 days
Outline: as §2

[18] = tested on: Surinam grass (Brachiaria decumbens); test: Test B postemergence; conditions: 13 to 15 days
Outline: as §2

[19] = tested on: velvetleaf (Abutilon theophrasti); test: Test B postemergence; conditions: 13 to 15 days
Outline: as §2

[20] = tested on: barnyardgrass (Echinochloa crus-galli); test: Test B postemergence; conditions: 13 to 15 days
Outline: as §2

[21] = tested on: blackgrass (Alopecurus myosuroides); test: Test B postemergence; conditions: 13 to 15 days
Outline: as §2

[22] = Preemergence, Rate 500 g/ha, scale 0 to 100
[23] = preemergence, Rate 250 g/ha, visual evaluation after 12 to 14 days
[24] = preemergence, Rate 125 g/ha, scale 0 to 100, 0 no effect, 100 complete control
[25] = Rate 62 g/ha, scale 0 to 100, 0 no effect, 100 complete control
[26] = Rate 125 g/ha, scale 0 (no effect) to 100 (complete control)
[27] = Rate 500 g/ha, scale 0 to 100, 0 is no effect, 100 is complete control

## O=C1C(n2ccc(C3CCC3)n2)SCN1c1cccc(OC(F)(F)F)c1 (stereo not drawn) [Compound 38]
[1]; [22]
  Plant response rating, Morningglory: 0
[1]; [23]
  Plant response rating (0 to 100), Morningglory: 0
[1]; [24]
  Plant response rating, Morningglory: 0
Sunflower [2]; [25]
  Plant response rating, Sunflower: 0
Sunflower [2]; Rate 500 g/ha, scale 0 to 100
  Plant response rating, Sunflower: 60
Corn (Zea mays) [3]; [22]
  Plant response rating, Corn: 0
Corn (Zea mays) [3]; [25]
  Plant response rating, Corn: 0
Corn (Zea mays) [3]; [23]
  Plant response rating (0 to 100), Corn: 0
Corn (Zea mays) [3]; [24]
  Plant response rating, Corn: 0
Kochia (Kochia scoparia); [22]
  Plant response rating, Kochia: 100
Kochia (Kochia scoparia); [25]
  Plant response rating, Kochia: 30
Kochia (Kochia scoparia); [23]
  Plant response rating (0 to 100), Kochia: 90
Kochia (Kochia scoparia); [24]
  Plant response rating, Kochia: 70
[4]; [22]
  Plant response rating, Bermudagrass: 100
[4]; [25]
  Plant response rating, Bermudagrass: 60
[4]; [23]
  Plant response rating (0 to 100 where 0 is no effect and 100 is complete control), Bermudagrass: 100
[4]; [24]
  Plant response rating, Bermudagrass: 90
[5]; [22]
  Plant response rating, Foxtail, Giant: 100
[5]; [25]
  Plant response rating, Foxtail, Giant: 80
[5]; [23]
  Plant response rating (0 to 100), Foxtail, Giant: 100
[5]; [24]
  Plant response rating, Foxtail, Giant: 0
[6]; [22]
  Plant response rating, Velvetleaf: 20
[6]; [25]
  Plant response rating, Velvetleaf: 0
[6]; [23]
  Plant response rating (0 to 100), Velvetleaf: 20
[6]; [24]
  Plant response rating, Velvetleaf: 0
[7]; [22]
  Plant response rating, Johnsongrass: 90
[7]; [25]
  Plant response rating, Johnsongrass: 40
[7]; [23]
  Plant response rating (0 to 100), Johnsongrass: 90
[7]; [24]
  Plant response rating, Johnsongrass: 50
[8]; [22]
  Plant response rating, Nutsedge: 70
[8]; [25]
  Plant response rating, Nutsedge: 0
[8]; [23]
  Plant response rating (0 to 100), Nutsedge: 0
[8]; [24]
  Plant response rating, Nutsedge: 0
Sunflower [9]
  Plant response rating (0 to 100), Sunflower: 60
[10]; [26]
  Plant response rating, Cocklebur: 40
[10]; [27]
  Plant response rating, Cocklebur: 80
[11]; [26]
  Plant response rating, Crabgrass: 60
[11]; [27]
  Plant response rating, Crabgrass: 100
[12]; [26]
  Plant response rating, Pigweed: 60
[12]; [27]
  Plant response rating, Pigweed: 80
[13]; [26]
  Plant response rating, Lambsquarters: 80
[13]; [27]
  Plant response rating, Lambsquarters: 90
Corn (Zea mays) [14]; [26]
  Plant response rating, Corn: 0
Corn (Zea mays) [14]; [27]
  Plant response rating, Corn: 0
Wild oat (Avena fatua); [26]
  Plant response rating, Wild Oat: 0
Wild oat (Avena fatua); [27]
  Plant response rating, Wild Oat: 0
[15]; [26]
  Plant response rating, Wheat: 0
[15]; [27]
  Plant response rating, Wheat: 0
[16]; [26]
  Plant response rating, Morningglory: 10
[16]; [27]
  Plant response rating, Morningglory: 20
[17]; [26]
  Plant response rating, Foxtail, Giant: 30
[17]; [27]
  Plant response rating, Foxtail, Giant: 80
[18]; [26]
  Plant response rating, Surinam grass: 0
[18]; [27]
  Plant response rating, Surinam grass: 0
[19]; [26]
  Plant response rating, Velvetleaf: 0
[19]; [27]
  Plant response rating, Velvetleaf: 70
[20]; [26]
  Plant response rating, Barnyardgrass: 100
[20]; [27]
  Plant response rating, Barnyardgrass: 100
[21]; [26]
  Plant response rating, Blackgrass: 0
[21]; [27]
  Plant response rating, Blackgrass: 0
